From ChEMBL document CHEMBL1156699, “C-terminal constrained phenylalanine as a pharmacophoric unit in peptide-based proteasome inhibitors” (Eur J Med Chem, 2008)
Residues, ends and D or L forms follow the SMILES beside them. *: point of attachment. Cbz = O=C(OCc1ccccc1)*

Legend:
[1] = Inhibition of trypsin like 20S proteasome activity in lymphoblastoid cells; assay type: cell-based
[2] = Inhibition of chymotrypsin like 20S proteasome activity in lymphoblastoid cells; assay type: cell-based
[3] = Inhibition of caspase like 20S proteasome activity in lymphoblastoid cells; assay type: cell-based
[4] = Half life in human plasma after 360 mins; assay type: ADME, cell-free
[5] = In vivo inhibition of caspase like 20S proteasome; assay type: organism-based
[6] = In vivo inhibition of chymotrypsin like 20S proteasome; assay type: organism-based
[7] = In vivo inhibition of trypsin like 20S proteasome; assay type: organism-based

| SMILES | IC50 [1] [µM] | IC50 [2] [µM] | IC50 [3] [µM] | half-life [4] [h] | IC50 [5] [µM] | IC50 [6] [µM] | IC50 [7] [µM] |
| --- | --- | --- | --- | --- | --- | --- | --- |
| CCOC(=O)/C=C/[C@@H]1Cc2ccccc2CN1C(=O)[C@H](CC(C)C)NC(=O)[C@H](CO)NC(=O)[C@@H](NC(=O)c1cccc(O)c1C)C(C)C | > 10 | > 10 | 2.5 |  |  |  |  |
| CC(C)C[C@@H](C=O)NC(=O)[C@H](CC(C)C)NC(=O)[C@H](CC(C)C)NC(=O)OCc1ccccc1 [MG-132] (Cbz-Leu-Leu-Leu-aldehyde) | 1.08 | 0.002 | > 10 |  |  |  |  |
| CCOC(=O)/C=C/[C@H]1Cc2ccccc2CN1C(=O)[C@H](CC(C)C)NC(=O)[C@H](CC(C)C)NC(=O)c1cccc(O)c1C | > 10 | 3.73 | 1.48 | > 6 | 2.05 |  |  |
| CCOC(=O)/C=C/[C@H]1Cc2ccccc2CN1C(=O)[C@H](CC(C)C)NC(=O)[C@H](CO)NC(=O)[C@@H](NC(=O)c1cccc(O)c1C)C(C)C | 7.95 | > 10 | 2.35 |  |  |  |  |
| CC[C@H](C)[C@H](NC(=O)[C@H]([C@@H](C)CC)N(C)C(C)=O)C(=O)N[C@H](C(=O)N[C@@H](CC(C)C)C(=O)[C@@]1(C)CO1)[C@@H](C)O [EPOXOMYCIN] |  | 0.005 |  |  |  |  |  |
| CCOC(=O)/C=C/[C@H]1Cc2ccccc2CN1C(=O)[C@H](CC(C)C)NC(=O)[C@H](CC(C)C)NC(=O)[C@H](CC(C)C)NC(=O)c1cccc(O)c1C | > 10 | 8.45 | 0.952 | > 6 | 1.41 |  |  |
| CCOC(=O)/C=C/[C@@H]1Cc2ccccc2CN1C(=O)[C@H](CC(C)C)NC(=O)[C@H](CC(C)C)NC(=O)[C@H](CC(C)C)NC(=O)c1cccc(O)c1C | > 10 | 5.29 | 1.73 |  |  |  |  |
| CCOC(=O)/C=C/[C@@H]1Cc2ccccc2CN1C(=O)[C@H](CC(C)C)NC(=O)[C@H](CC(C)C)NC(=O)c1cccc(O)c1C | 5.84 | 2.06 | 2.14 |  |  |  |  |

Continued by falling IC50 [1], values first:

| IC50 [1] [µM] | IC50 [2] [µM] | IC50 [3] [µM] | half-life [4] [h] | IC50 [5] [µM] | IC50 [6] [µM] | IC50 [7] [µM] | SMILES |
| --- | --- | --- | --- | --- | --- | --- | --- |
| 3.67 | > 10 | 2.96 |  |  |  |  | CCOC(=O)/C=C/[C@H]1Cc2ccccc2CN1C(=O)[C@H](CO)NC(=O)[C@@H](NC(=O)c1cccc(O)c1C)C(C)C |
| 2.79 | > 10 | 3.92 |  |  |  |  | CCOC(=O)/C=C/[C@@H]1Cc2ccccc2CN1C(=O)[C@H](CO)NC(=O)[C@@H](NC(=O)c1cccc(O)c1C)C(C)C |
| 1.76 | 1.19 | > 10 | > 6 | > 10 | 1.55 | 2.18 | CCOC(=O)/C(=C/c1ccccc1)NC(=O)[C@H](CC(C)C)NC(=O)[C@H](CC(C)C)NC(=O)c1cccc(O)c1C |
| 1.31 | 0.894 | > 10 | > 6 | > 10 | 1.04 | 1.81 | CCOC(=O)/C(=C/c1ccccc1)NC(=O)[C@H](CC(C)C)NC(=O)[C@H](CC(C)C)NC(=O)[C@H](CC(C)C)NC(=O)c1cccc(O)c1C |
| 0.183 | > 10 | > 10 | > 6 | > 10 | > 10 | 0.231 | CCOC(=O)/C(=C/c1ccccc1)NC(=O)[C@H](CO)NC(=O)[C@@H](NC(=O)c1cccc(O)c1C)C(C)C |
| 0.079 | > 10 | > 10 | > 6 | > 10 | > 10 | 0.092 | CCOC(=O)/C(=C/c1ccccc1)NC(=O)[C@H](CC(C)C)NC(=O)[C@H](CO)NC(=O)[C@@H](NC(=O)c1cccc(O)c1C)C(C)C |
| 0.033 | > 10 | > 10 | > 6 | > 10 | > 10 | 0.05 | CCOC(=O)/C=C/[C@H](CC(C)C)NC(=O)[C@H](CO)NC(=O)[C@@H](NC(=O)c1cccc(O)c1C)C(C)C |
